Experimental data: US10131652B2, “Pyrimidinyloxy benzene derivatives as herbicides” (E. I. DU PONT DE NEMOURS AND COMPANY, priority 2014, dated 2018)

Legend:
Type in all cases: in vivo
[1] = system: kochia (Kochia scoparia); assay: Test D postemergence plant response
Text: (§1) At the same time, plants selected from these crop and weed species and also kochia (Kochia scoparia), wild oat (Avena fatua), and chickweed (common chickweed, Stellaria media) were planted in pots containing Redi-Earth® planting medium (Scotts Company, 14111 Scottslawn Road, Marysville, Ohio 43041) comprising spaghnum peat moss, vermiculite, wetting agent and starter nutrients and treated with postemergence applications of test chemicals formulated in the same manner. Plants ranged in height from 2 to 18 cm (1- to 4-leaf stage) for postemergence treatments. Treated plants and controls were maintained in a greenhouse for 13 to 15 days, after which time all species were compared to controls and visually evaluated. Plant response ratings, summarized in Table D, are based on a scale of 0 to 100 where 0 is no effect and 100 is complete control. A dash (-) response means no test result.

[2] = system: wild oat (Avena fatua); assay: Test D postemergence plant response
Text: as §1

[3] = system: chickweed (common chickweed, Stellaria media); assay: Test D postemergence plant response
Text: as §1

[4] = system: galium (catchweed bedstraw, Galium aparine); assay: Test B postemergence plant response
Summary of the method: (§2)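 Injury was assessed visually about 10 days after treatment, scored from 0 (no effect) to 100 (complete control) by comparison with untreated controls. Test chemicals had been applied postemergence to potted plants at the one- to two-leaf stage, grown in loam soil and sand in a greenhouse.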

[5] = system: blackgrass (Alopecurus myosuroides); assay: Test B postemergence plant response
Summary of the method: as §2

[6] = 31 g ai/ha, scale 0 to 100 (0 no effect, 100 complete control)
[7] = 62 g ai/ha, scale 0 to 100, 0 no effect, 100 complete control
[8] = 16 g ai/ha, scale 0 to 100 (0 no effect, 100 complete control)
[9] = 125 g ai/ha, postemergence, 0 to 100 scale, 0 no effect, 100 complete control
[10] = Postemergence, 500 g ai/ha, 0 to 100 scale (0 no effect, 100 complete control)
[11] = 125 g ai/ha, scale 0 to 100, 0 no effect, 100 complete control
[12] = Postemergence, 31 g ai/ha, 0 to 100 scale (0 no effect, 100 complete control)
[13] = Postemergence, 1000 g ai/ha, 0 to 100 scale (0 no effect, 100 complete control)

Row | SMILES | Kochia plant response rating [1, 6] | Plant response rating, Kochia [1, 7] | Oat, Wild plant response rating [2, 6] | Plant response rating, Oat, Wild [2, 7] | Chickweed plant response rating [3, 8] | Chickweed plant response rating [3, 6] | Plant response rating, Chickweed [3, 7] | Plant response rating, Galium [4, 9] | Plant response rating, Galium [4, 10] | Plant response rating, Blackgrass [5, 9] | Plant response rating, Blackgrass [5, 10] | Plant response rating, Kochia [1, 11] | Plant response rating, Oat, Wild [2, 11] | Plant response rating, Chickweed [3, 11] | Plant response rating (scale 0 to 100), Kochia ([1]; 16 g ai/ha) | Plant response rating (scale 0 to 100), Oat, Wild ([2]; 16 g ai/ha) | Oat, Wild plant response rating [2, 7] | Plant response rating (scale 0 to 100), Chickweed ([3]; 16 g ai/ha) | other results
1 | FC(F)(F)c1cc(-c2c(I)cccc2Oc2ncc(Cl)cn2)no1 [Compound 156] | 30 | 45 | 0 | 0 | 5 | 45 | 70 | 90 | 100 | 20 | 40 |  |  |  |  |  |  |  | Plant response rating (scale 0 to 100), Kochia ([1]; 8 g ai/ha): 0; Plant response rating (scale 0 to 100), Oat, Wild ([2]; 8 g ai/ha): 0; Plant response rating (scale 0 to 100), Chickweed ([3]; 8 g ai/ha): 5
2 | N#Cc1cccc(Oc2ncc(Cl)cn2)c1-c1cc(C(F)(F)F)on1 [Compound 157] | 90 |  | 10 |  | 50 | 75 |  | 100 | 100 | 70 | 90 |  |  |  |  |  |  |  | Plant response rating (scale 0 to 100), Kochia ([1]; 4 g ai/ha): 0; Plant response rating (scale 0 to 100), Kochia ([1]; 8 g ai/ha): 20; Plant response rating (scale 0 to 100), Oat, Wild ([2]; 4 g ai/ha): 0; Plant response rating (scale 0 to 100), Oat, Wild ([2]; 8 g ai/ha): 0; Plant response rating (scale 0 to 100), Chickweed ([3]; 4 g ai/ha): 5; Plant response rating (scale 0 to 100), Chickweed ([3]; 8 g ai/ha): 10
3 | FC(F)(Br)c1cc(-c2ccccc2Oc2ncc(Cl)cn2)no1 [Compound 162] | 100 | 100 | 5 | 5 | 50 | 60 | 60 | 90 |  | 30 |  | 100 | 10 | 85 |  |  |  |  | Plant response rating, Galium [4, 12]: 90; Plant response rating, Blackgrass [5, 12]: 30
4 | Fc1cccc(Oc2ncc(Cl)cn2)c1-c1cc(C(F)(F)F)on1 [Compound 168, 5-chloro-2-[2-[5-(trifluoromethyl)-3-isoxazolyl]-3-fluorophenoxy]pyrimidine] |  |  |  |  |  |  |  | 100 | 100 | 90 | 90 |  |  |  |  |  |  |  | pest or weed control at 31 g/ha ([1]; Bassia scoparia, post-emergence, 31 g ai/ha, scale 0 to 100 (0 no effect, 100 complete control), read-out: Kochia plant response rating): 100%; pest or weed control at 62 g/ha ([1]; Bassia scoparia, post-emergence, 62 g ai/ha, scale 0 to 100, 0 no effect, 100 complete control, read-out: Plant response rating, Kochia): 100%; pest or weed control at 125 g/ha ([1]; Bassia scoparia, post-emergence, 125 g ai/ha, scale 0 to 100, 0 no effect, 100 complete control, read-out: Plant response rating, Kochia): 100%; pest or weed control at 31 g/ha ([2]; Avena fatua, post-emergence, 31 g ai/ha, scale 0 to 100 (0 no effect, 100 complete control), read-out: Oat, Wild plant response rating): 10%; pest or weed control at 62 g/ha ([2]; Avena fatua, post-emergence, 62 g ai/ha, scale 0 to 100, 0 no effect, 100 complete control, read-out: Plant response rating, Oat, Wild): 20%; pest or weed control at 125 g/ha ([2]; Avena fatua, post-emergence, 125 g ai/ha, scale 0 to 100, 0 no effect, 100 complete control, read-out: Plant response rating, Oat, Wild): 30%; pest or weed control at 16 g/ha ([3]; Stellaria media, post-emergence, 16 g ai/ha, scale 0 to 100 (0 no effect, 100 complete control), read-out: Chickweed plant response rating): 65%; pest or weed control at 31 g/ha ([3]; Stellaria media, post-emergence, 31 g ai/ha, scale 0 to 100 (0 no effect, 100 complete control), read-out: Chickweed plant response rating): 98%; pest or weed control at 62 g/ha ([3]; Stellaria media, post-emergence, 62 g ai/ha, scale 0 to 100, 0 no effect, 100 complete control, read-out: Plant response rating, Chickweed): 100%; pest or weed control at 125 g/ha ([3]; Stellaria media, post-emergence, 125 g ai/ha, scale 0 to 100, 0 no effect, 100 complete control, read-out: Plant response rating, Chickweed): 100%
5 | FC(F)(F)c1cc(-c2c(Cl)cccc2Oc2ncc(Cl)cn2)no1 [Compound 169] | 60 | 90 | 5 | 5 | 5 | 40 | 70 | 100 | 100 | 50 | 90 | 95 | 10 | 80 |  |  |  |  | 
6 | FC(F)(F)c1cc(-c2c(Br)cccc2Oc2ncc(Cl)cn2)no1 [Compound 170] | 60 | 85 | 5 | 5 | 30 | 65 | 90 | 80 | 100 | 50 | 60 | 100 | 10 | 100 |  |  |  |  | 
7 | CC(F)(F)c1cc(-c2ccccc2Oc2ncc(Cl)cn2)on1 [Compound 178] | 95 | 100 | 0 |  |  | 50 | 60 | 100 |  | 40 |  | 100 | 5 | 80 | 90 | 0 | 5 | 50 | Plant response rating, Galium [4, 12]: 80; Plant response rating, Blackgrass [5, 12]: 10
8 | N#Cc1cccc(Oc2ncc(Cl)cn2)c1-c1cc(C(F)F)on1 [Compound 180] | 90 | 100 | 5 |  |  | 60 | 85 | 100 | 100 | 90 | 90 | 100 | 30 | 95 | 85 | 0 | 5 | 60 | 
9 | Clc1cnc(Oc2ccccc2-c2cc(C3CC3)on2)nc1 [Compound 183] | 95 | 100 | 5 |  |  | 60 | 65 | 100 | 100 | 80 | 90 | 100 | 25 | 70 | 90 | 0 | 10 | 30 | 
10 | Clc1cnc(Oc2ccccc2-c2ccon2)nc1 [Compound 185] | 0 | 5 | 0 |  |  | 0 | 5 | 40 | 70 | 0 | 50 | 30 | 5 | 5 | 0 | 0 | 0 | 0 | 
11 | FCc1cc(-c2c(Br)cccc2Oc2ncc(Cl)cn2)no1 [Compound 191] | 80 | 85 | 0 |  |  | 55 | 70 |  |  |  |  | 90 | 5 | 90 | 50 | 0 | 5 | 50 | Plant response rating, Galium [4, 13]: 100; Plant response rating, Blackgrass [5, 13]: 100
